From patent US12077508B2, “Inhibitors of the Notch transcriptional activation complex kinase (“NACK”) and methods for use of the same” (UNIVERSITY OF MIAMI, priority 2018, dated 2024)
Entries after “also recorded” stand apart in the source; their conditions may differ.

How the values were obtained:
LCK = LCK (Homo sapiens, UniProt P06239); assay: ADP-Glo LCK kinase assay; format: biochemical; settings: FIG. 17B
Protocol: (§1) ADP-Glo kinase assay was performed using ADP-Glo™ Kinase Assay (Promega, V6930) according to the manufacture recommended protocol.

HC11/N1ICD spheres = assay: Tumor sphere formation assay in HC11/N1ICD; format: cell-based, mouse
Text: To further explore the effect of NACK inhibitors targeting Notch pathway, ectopic expression of Notch in HC11 mammary epithelial cells was constructed, as HC11 cells have little to no endogenous Notch activity. Moreover, HC11 cells are insensitive to either DAPT or Z271-0326 treatment as shown in previous colony formation assay (FIG. 5B). See Weaver et al., Cancer Research 74, 4741-4751 (2014). […] Therefore, transformation of HC11 cells by Notch now renders these cells dependent on Notch activity and sensitive to inhibition of NACK by Z271-0326.
In order to assess the effect of hit to lead compounds on the proliferation of stem cell like population of Notch/NACK dependent cells, the primary tumor spheres were treated with NACK inhibitor and allow the cells to be propagated as secondary cultures. To obtain tumor spheres, cells were cultured in DMEM/F12 with 2% B-27 serum-free supplement (17604-044; Invitrogen), 20 ng/mL epidermal growth factor (EGF; PHG0311L; Invitrogen), and 20 ng/mL basic fibroblastic growth factor (bFGF; PHG0266; Invitrogen) for 14 days. Resulting tumor spheres were examined and counted under the microscope. Furthermore, the tumor spheres were collected for further RT-qPCR analysis to test the effect of hit to lead compounds on the stem like target genes.

[1] = system: esophageal adenocarcinoma (EAC) PDX
Protocol: Two EAC PDX models were constructed (EAC47 and EAC36) from patient tumor samples. Mice harboring established tumors (approx. 200 mm^3) were treated with either DAPT (20 mg/kg) or Z271-0326 (25 mg/kg) daily via intraperitoneal injections.
When the tumor size reaches 200 mm^3, the corresponding groups were either treated with vehicle (DMSO) or lead compound by IP injection daily.

Notch target genes = assay: RT-qPCR of Notch target genes in Notch/NACK-dependent cells; format: cell-based, human; settings: OE33; FIG. 6B
Protocol: To assess the effect of NACK inhibitor on Notch target gene transcription, Notch/NACK-dependent cell lines were treated with NACK inhibitors. The cells were also treated with DAPT as a positive control. DMSO treated cells served as a vehicle control for comparison. Gene expression was normalized to HPRT, and TBP served as a negative control to validate normalization.
Reverse transcription and qPCR analysis were performed as described previously (See Weaver et al., Cancer Research 74, 4741-4751 (2014)). Gene expression was normalized to the TATA-binding protein (“TBP”) gene. As a control, hypoxanthine phosphoribosyltransferase 1 (“HPRT”) gene expression was also monitored.

OE33 cells = assay: Senescence-associated β-galactosidase assay; format: cell-based, human; settings: treatment for 3 weeks, FIG. 9B
Protocol: After prolonged Z271-0326 or DAPT treatment for 3 weeks of live cells of OE33, cells were measured by senescence-associated β-galaotosidase activity according to the manufacture recommended protocol (Senescence β-Galaotosidase Staining Kit, Cell Signaling, #9860).

HC11 cells = assay: Colony formation assay in HC11 cells; format: cell-based, mouse; settings: Notch/NACK independent cell line; FIG. 5B
Protocol: A cell based colony formation assay was used in these experiments. Normal mouse mammary epithelia HC11 cells have little or no endogenous NACK expression, and NACK knockdown had no effect on the growth of HC11 cells (FIG. 5A, lower panel). […] Knockdown of NACK was confirmed by western blot and qPCR (FIGS. 1D and 1E). […] Therefore, compounds that affect OE33 colony formation but not HC11 were desired. In order to screen the compounds, cells were treated with test compounds every other day.
Colony formation assay was utilized to determine the effect of small molecule inhibitors on cell proliferation. In general, different cell lines (NACK dependent or independent) will be seeded in 6-well plates at a density of 2000 cells per well and allowed to attach overnight. Inhibitor treatment commenced 24 hours post seeding, and the media containing inhibitor was changed every 48 hours thereafter. After 168 hours, colonies were be stained with Crystal Violet (Millipore) and counted.

MAP4K5 = MAP4K5 (Homo sapiens, UniProt Q9Y4K4); assay: ADP-Glo MAP4K5 kinase assay; format: biochemical; settings: FIG. 17A
Chain of MAP4K5 (Q9Y4K4 whole entry, species assumed): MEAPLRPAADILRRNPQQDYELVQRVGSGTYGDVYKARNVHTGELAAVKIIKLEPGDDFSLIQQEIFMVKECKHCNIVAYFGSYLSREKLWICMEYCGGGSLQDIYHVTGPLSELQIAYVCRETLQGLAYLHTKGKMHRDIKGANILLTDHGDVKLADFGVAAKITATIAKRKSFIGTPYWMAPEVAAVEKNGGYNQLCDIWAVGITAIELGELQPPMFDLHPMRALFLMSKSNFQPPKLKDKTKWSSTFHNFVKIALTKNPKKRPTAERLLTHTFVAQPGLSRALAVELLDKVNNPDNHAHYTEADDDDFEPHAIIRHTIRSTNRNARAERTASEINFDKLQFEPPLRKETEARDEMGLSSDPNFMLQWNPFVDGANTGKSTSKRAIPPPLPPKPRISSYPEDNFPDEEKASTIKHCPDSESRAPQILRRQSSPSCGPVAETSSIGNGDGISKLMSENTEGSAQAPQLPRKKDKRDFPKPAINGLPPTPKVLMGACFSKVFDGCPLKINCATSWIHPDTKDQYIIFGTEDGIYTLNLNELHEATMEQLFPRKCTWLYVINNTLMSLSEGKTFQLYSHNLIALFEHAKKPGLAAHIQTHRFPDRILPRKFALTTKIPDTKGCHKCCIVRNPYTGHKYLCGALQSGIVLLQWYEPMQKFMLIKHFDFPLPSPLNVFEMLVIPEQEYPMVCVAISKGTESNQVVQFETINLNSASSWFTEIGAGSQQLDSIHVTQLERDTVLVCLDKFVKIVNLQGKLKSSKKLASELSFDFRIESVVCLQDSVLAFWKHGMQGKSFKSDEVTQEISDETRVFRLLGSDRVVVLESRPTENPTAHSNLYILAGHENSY
Protocol: as §1

[2] = Maximum tolerated dose in efficacy studies; settings: mouse, in vivo, ip, 25 mg/kg; 4-week efficacy studies; intraperitoneal
TNIK = TNIK (Homo sapiens, UniProt Q9UKE5); assay: ADP-Glo TNIK kinase assay; format: biochemical; settings: FIG. 17C
Chain of TNIK (Q9UKE5 whole entry, species assumed): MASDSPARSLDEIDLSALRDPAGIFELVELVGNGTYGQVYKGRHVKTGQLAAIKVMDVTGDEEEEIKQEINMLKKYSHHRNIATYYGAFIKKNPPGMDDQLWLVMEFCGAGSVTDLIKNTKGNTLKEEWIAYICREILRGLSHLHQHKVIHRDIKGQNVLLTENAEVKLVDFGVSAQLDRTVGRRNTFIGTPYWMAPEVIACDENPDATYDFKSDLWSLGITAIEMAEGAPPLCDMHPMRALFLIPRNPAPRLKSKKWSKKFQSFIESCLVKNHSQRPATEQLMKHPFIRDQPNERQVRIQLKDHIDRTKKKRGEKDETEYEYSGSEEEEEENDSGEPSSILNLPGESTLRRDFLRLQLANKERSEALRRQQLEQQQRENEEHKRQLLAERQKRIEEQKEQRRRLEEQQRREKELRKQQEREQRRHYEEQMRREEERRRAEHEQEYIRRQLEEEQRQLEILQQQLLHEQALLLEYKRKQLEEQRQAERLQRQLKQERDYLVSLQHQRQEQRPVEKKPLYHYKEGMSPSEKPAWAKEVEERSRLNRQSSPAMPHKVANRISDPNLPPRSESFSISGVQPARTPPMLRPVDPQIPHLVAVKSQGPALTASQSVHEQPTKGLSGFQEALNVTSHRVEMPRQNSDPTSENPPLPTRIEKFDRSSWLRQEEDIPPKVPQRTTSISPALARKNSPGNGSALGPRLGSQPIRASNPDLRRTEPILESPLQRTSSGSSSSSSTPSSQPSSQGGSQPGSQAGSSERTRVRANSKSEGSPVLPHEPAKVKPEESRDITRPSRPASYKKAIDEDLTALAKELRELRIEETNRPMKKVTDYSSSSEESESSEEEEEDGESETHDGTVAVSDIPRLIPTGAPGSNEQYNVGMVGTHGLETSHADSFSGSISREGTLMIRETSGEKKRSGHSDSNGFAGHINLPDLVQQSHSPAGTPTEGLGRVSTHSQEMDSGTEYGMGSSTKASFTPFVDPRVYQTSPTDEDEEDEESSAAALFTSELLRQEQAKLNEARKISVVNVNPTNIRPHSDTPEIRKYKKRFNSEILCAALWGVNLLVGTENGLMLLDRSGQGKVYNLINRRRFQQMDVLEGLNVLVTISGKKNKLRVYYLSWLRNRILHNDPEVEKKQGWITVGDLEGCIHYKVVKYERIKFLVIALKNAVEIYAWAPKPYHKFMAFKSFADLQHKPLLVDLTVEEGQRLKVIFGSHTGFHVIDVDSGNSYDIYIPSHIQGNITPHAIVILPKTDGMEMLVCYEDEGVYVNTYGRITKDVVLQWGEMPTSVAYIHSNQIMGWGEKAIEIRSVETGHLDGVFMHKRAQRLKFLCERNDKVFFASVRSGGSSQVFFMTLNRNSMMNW
Protocol: as §1

Chain of LCK (P06239 whole entry, species assumed): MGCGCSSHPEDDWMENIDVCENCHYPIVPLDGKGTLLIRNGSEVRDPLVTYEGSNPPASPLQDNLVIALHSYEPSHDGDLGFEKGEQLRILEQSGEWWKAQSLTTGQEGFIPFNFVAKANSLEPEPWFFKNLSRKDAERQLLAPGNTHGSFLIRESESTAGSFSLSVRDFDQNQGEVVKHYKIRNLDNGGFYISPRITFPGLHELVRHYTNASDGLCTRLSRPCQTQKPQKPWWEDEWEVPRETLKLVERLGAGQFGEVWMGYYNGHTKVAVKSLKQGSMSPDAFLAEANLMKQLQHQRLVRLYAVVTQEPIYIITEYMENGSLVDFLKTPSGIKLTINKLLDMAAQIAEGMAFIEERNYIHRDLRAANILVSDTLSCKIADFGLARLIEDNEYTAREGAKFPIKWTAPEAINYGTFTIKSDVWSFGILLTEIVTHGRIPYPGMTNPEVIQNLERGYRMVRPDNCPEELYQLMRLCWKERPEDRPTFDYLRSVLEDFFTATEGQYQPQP

Structure (SMILES): CCN(CC)C(=O)c1cnn2ccc(C3CCN(S(=O)(=O)c4ccc(NC(C)=O)cc4)CC3)cc12 [Compound Z271-0326, 5-(1-((4-acetamidophenyl)sulfonyl)piperidin-4-yl)-N,N-diethylpyrazolo[1,5-a]pyridine-3-carboxamide]
- LCK kinase inhibition (LCK): meaningfully inhibits LCK
- HES1 and stem-cell marker gene expression (ALDH1A1, SNAIL1, TWIST1) (HC11/N1ICD spheres; HC11/N1ICD spheres, FIG. 7D): causes a decrease in HES1 gene expression as well as several other stem-cell marker genes
- secondary sphere formation (HC11/N1ICD spheres; HC11/N1ICD, FIG. 7C): inhibits the ability of HC11/N1ICD spheres to form secondary spheres
- proliferation index (Ki67 staining) ([1]; Z271-0326 25 mg/kg daily i.p., vs control group, FIG. 11E): decrease in proliferation index
- tumor growth ([1]; Z271-0326 25 mg/kg daily intraperitoneal, vs vehicle, FIGS. 11A-11C): significantly attenuated
- mRNA levels of Notch target genes Hes1 and Notch3 (Notch target genes): decrease the mRNA levels of Notch target genes Hes1 and Notch3
- cellular senescence (senescence-associated β-galactosidase activity) (OE33 cells): resulted in the induction of cellular senescence
- HC11 colony formation / viability (HC11 cells): but not HC11 cell; also recorded: insensitive
- MAP4K5 kinase inhibition (MAP4K5): only meaningfully inhibits LCK out of the three kinases
- MTD at 4 weeks [2]: 25 mg/kg
- TNIK kinase inhibition (TNIK): only meaningfully inhibits LCK out of the three kinases
